Results published in patent EP0052564A1, “Derivatives of 2-thiazolyl-oxamic acid substituted in position 4 by a thienyl or furyl radical, their preparation and use as pharmaceutical preparations” (PIERRE FABRE S.A., priority 1980, dated 1982).

Test: Solubility (in water, ethanol, methyl pyrrolidone)
Assay type: physicochemical
Conditions: for Solubilités : dans la méthyl pyrrolidone: methyl pyrrolidone; for Solubilités : dans l'eau: water; for Solubilités : dans l'éthanol: ethanol

Compound | Solubilités : dans la méthyl pyrrolidone [%] | Solubilités : dans l'eau | Solubilités : dans l'éthanol [%]
CCOC(=O)C(=O)Nc1nc(-c2ccsc2)cs1 [Exemple 6, ( β thienyl-4 thiazolyl-2) oxamate d'éthyle] | 50 | insoluble | –
(α thienyl-4 thiazolyl-2) oxamate d'éthanolamine [Exemple 5] | 15 | insoluble | –
O=C(O)C(=O)Nc1nc(-c2cccs2)cs1 [Exemple 3, (α thienyl-4 thiazolyl-2) oxamate de sodium] | 15 | insoluble | –
(α thienyl-4 thiazolyl-2) oxamate de zinc [Exemple 4] | 50 | insoluble | –
CCOC(=O)C(=O)Nc1nc(-c2ccco2)cs1 [Exemple 7, (α furyl-4 thiazolyl-2) oxamate d'éthyle] | 50 | insoluble | 3
O=C(O)C(=O)Nc1nc(-c2ccco2)cs1 [Exemple 8, Acide (α furyl-4 thiazolyl-2) oxamique] | 25 | insoluble | –
CCOC(=O)C(=O)Nc1nc(-c2cccs2)cs1 [Exemple 1, (α thienyl-4 thiazolyl-2) oxamate d'éthyle] | 50 | insoluble | 1
O=C(O)C(=O)Nc1nc(-c2cccs2)cs1 [Exemple 2, Acide (α thienyl-4 thiazolyl-2) oxamique] | 50 | insoluble | –
